Data taken from patent US8252822B2, “Heterocyclic compounds and uses as anticancer agents” (Acea Biosciences, Inc., priority 2007, dated 2012).
Where two headings read alike, the source gives them in different places.

Experiments:
SH-SY5Y = experiment: RT-CES cell proliferation inhibition, SH-SY5Y; type: cell-based; details: Homo sapiens
From the text: (§1) The biological activity of compounds disclosed herein was monitored and profiled using the Real-Time Cell Electronic Sensing (RT-CES®) system from ACEA Biosciences, Inc. The RT-CES system utilizes cell-substrate impedance technology to monitor cellular behavior inside tissue culture wells in a microtiter plate format. The technology features in the integration of molecular and cell biology with microelectronics and is based on the electronic detection of biological assay process. The details of this cell electronic sensing technology and associated devices, systems and methods of use as described in U.S. provisional application No. 60/379,749, filed on Jul. […]
(§2) For measurement of cell-substrate or cell-electrode impedance using RT-CES technology, microelectrodes having appropriate geometries are fabricated onto the bottom surfaces of microtiter plate or similar device, facing into the wells. […] When there are changes to the biological status of the cells analogue electronic readout signals are measured automatically and in real time, and are converted to digital signals for processing and for analysis. In a RT-CES system, a cell index (arbitrary representation of change in impedance) is automatically derived and provided based on measured electrode impedance values. […]
(§3) To quantify cell status based on the measured cell-electrode impedance, a parameter termed Cell Index is derived. […]

HT1080 = experiment: RT-CES cell proliferation inhibition, HT1080; type: cell-based; details: Homo sapiens, HT-1080
From the text: as §1, §2, §3

[1] = test system: a number of cancer cell lines (MCF7adr, PC3, KB, KB200, Bcap37); experiment: RT-CES time-dependent cell index, a number of cancer cell lines (FIG. 10, 11); type: cell-based, human; details: various concentrations
From the text: as §1, §2, §3

[2] = test system: murine Lewis lung cancer (LLC); experiment: Anti-tumor activity against LLC mice model; type: in vivo, C57 BL/6 mice; details: 40 mg/kg; for Tumor Weight / Inhibition Rate (%): LLC, 12 days; for Tumor Weight: qod (Table 14); for Inhibition Rate (%): qod (Table 14; text qd); for Body Weight (g) Start: mouse, in vivo
Description: ACEA100160 (2-(4-ethoxyphenyl)amino-4-(6-methylimidazo[1,2-a]pyrimidin-3-yl)thiazole) and ACEA 100162 (2-(4-ethoxyphenyl)amino-4-(6-methylimidazo[2,1-b]thiazol-5-yl)thiazole) are prepared at concentration of 8 mg/ml in solution containing 20% HP-beta-CD dextrose (D5W). The solvent HP-beta-CD solution is used as a vehicle negative control.
LLC: murine Lewis lung cancer cell line.
LLC cells were cultured in DMEM medium with 10% FBS to obtain the necessary cell number for injection subcutaneously (10^7 cells).
Under a sterilized condition, sacrifice the C57 BL/6 murine LLC bearing mice, separate tumor and put it into NS. Chop the tumor into fine pieces with sterilized scissors and then homogenate into cell suspension. Inject 0.2 ml cell suspension (10^6 cells) subcutaneously into the left flank on C57 BL/6 mice. On the first treatment day before iv or ip, implanted animals are randomly divided into seven groups as following. The drugs were administrated in the schedule of Table 13 respectively. The solvent HP-beta-CD solution is used as a vehicle negative control. Observe clinical signs at least daily.
Tumor weight was recorded. The tumor inhibitory rate was calculated as follows: inhibitory rate=1-Wt/W0, where Wt is the average weight of each drug treatment group and W0 is the average weight of negative control group. Results are given as mean±SD values from n animals. Comparisons between groups were made with Student's two-tailed t test and a P<0.05 was considered significant.

H460 = experiment: RT-CES cell proliferation inhibition, H460; type: cell-based; details: Homo sapiens, NCI-H460
From the text: as §1, §2, §3

KB200 = experiment: RT-CES cell proliferation inhibition, KB200; type: cell-based; details: Homo sapiens
From the text: as §1, §2, §3

- IC50 (SH-SY5Y; 24 hrs, read-out: IC50 (24 hr)): 13.4 nM
- IC50 (SH-SY5Y; 48 hrs, read-out: IC50 (48 hr)): 6.7 nM
- IC50 (HT1080; HT1080, 24 hrs, read-out: IC50 (24 hr)): 2.39 nM
- IC50 (HT1080; HT1080, 48 hrs, read-out: IC50 (48 hr)): 2.69 nM
- IC50 (H460; H460, 24 hrs after compound treatment, read-out: IC50 (24 hr)): 12.3 nM
- IC50 (H460; H460, 48 hrs after compound treatment, read-out: IC50 (48 hr)): 16 nM
Compound: Br.CCOc1ccc(Nc2nc(-c3c(C)nc4sccn34)cs2)cc1 [Compound 27, 2-(4-ethoxyphenyl)amino-4-(6-methylimidazo[2,1-b]thiazol-5-yl)thiazole]
- inhibitory effect on the proliferation of a number of cancer cell lines [1]: exhibited inhibitory effect on the proliferation of a number of cancer cell lines
- Tumor Weight ([2]; IP): 0.70 ± 0.46 g
- Inhibition Rate (%) ([2]; IP, listed as 162, 40 mg/kg): 39.2%
- Inhibition Rate (%) ([2]; IP, listed as ACEA100162, 40 mg/kg): 39.15%
- Tumor Weight ([2]; IV): 0.91 ± 0.18 g
- Inhibition Rate (%) ([2]; IV): 25.5%
- Body Weight (g) Start ([2]; ip): 19.0 ± 0.8 g
- Body Weight (g) Start ([2]; iv): 18.5 ± 1.3 g
- IC50 (KB200; KB200, 24 hrs, read-out: IC50 (24 hr)): 12.1 nM
- IC50 (KB200; KB200, 48 hrs, read-out: IC50 (48 hr)): 4.28 nM
